ChEMBL document CHEMBL4725229, “Positional Analogue Scanning: An Effective Strategy for Multiparameter Optimization in Drug Design” (J Med Chem, 2020)
Calls of active or inactive are those of the source. No cut-off for these calls is given here.

Experiments:
[1] = biological target: Sphingosine 1-phosphate receptor 1 (Homo sapiens) (UniProt P21453); assay: Agonist activity at S1P1 (unknown origin) relative to control; conditions: filed as agonist
[2] = Apparent permeability across apical to basolateral side in pig LLC-PK1 cells; format: ADME, cell-based, Sus scrofa
[3] = biological target: T1, Sphingosine 1-phosphate receptor 3 (Homo sapiens, UniProt Q99500); assay: Agonist activity at S1P3 (unknown origin)
[4] = biological target: T1, Sphingosine 1-phosphate receptor 3; assay: Agonist activity at S1P3 (unknown origin) relative to control

T1 sequence (Q99500 whole entry): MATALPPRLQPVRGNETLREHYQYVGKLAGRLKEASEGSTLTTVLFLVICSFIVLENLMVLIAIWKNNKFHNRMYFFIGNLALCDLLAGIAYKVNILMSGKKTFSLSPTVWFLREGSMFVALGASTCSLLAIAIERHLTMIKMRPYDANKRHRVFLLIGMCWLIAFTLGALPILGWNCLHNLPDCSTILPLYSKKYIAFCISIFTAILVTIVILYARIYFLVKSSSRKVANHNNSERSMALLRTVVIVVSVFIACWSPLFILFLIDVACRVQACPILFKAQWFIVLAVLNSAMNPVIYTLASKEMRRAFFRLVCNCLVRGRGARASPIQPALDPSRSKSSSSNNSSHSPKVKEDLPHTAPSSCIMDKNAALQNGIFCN
Chain of Sphingosine 1-phosphate receptor 1 (Homo sapiens) (P21453 whole entry): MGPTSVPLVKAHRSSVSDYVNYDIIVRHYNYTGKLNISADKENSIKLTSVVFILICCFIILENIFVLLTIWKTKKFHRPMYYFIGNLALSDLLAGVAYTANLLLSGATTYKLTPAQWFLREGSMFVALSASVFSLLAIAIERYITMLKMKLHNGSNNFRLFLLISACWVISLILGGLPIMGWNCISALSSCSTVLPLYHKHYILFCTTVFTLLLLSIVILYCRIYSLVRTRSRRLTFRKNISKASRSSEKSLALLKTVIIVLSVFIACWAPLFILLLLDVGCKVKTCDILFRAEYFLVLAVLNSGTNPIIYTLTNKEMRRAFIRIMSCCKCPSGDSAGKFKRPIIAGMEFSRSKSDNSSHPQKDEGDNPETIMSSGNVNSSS

Structure (SMILES)	Emax [1] [%]	Papp A→B [2] [×10⁻⁶ cm/s]	EC50 [3]	Emax [4]	Emax ([4]; filed as agonist) [%]
Cn1cc(C(=O)Nc2ccc(-c3ccccn3)c(C(F)(F)F)c2)c(=O)c2ccccc21	110	11	Not Active	inactive	
Cn1cc(C(=O)Nc2ccc(-c3cccnc3)c(C(F)(F)F)c2)c(=O)c2ccccc21	110	18	Not Active	inactive	
Cn1cc(C(=O)Nc2cc(C(F)(F)F)c(-c3ccccc3)cn2)c(=O)c2ccccc21	59	< 1	Not Active	inactive	
Cn1cc(C(=O)Nc2ccc(-c3ccccc3)c(C(F)(F)F)c2)c(=O)c2ncccc21	86	16	Not Active	inactive	
Cn1cc(C(=O)Nc2ccc(-c3ccccc3)c(C(F)(F)F)n2)c(=O)c2cnccc21	120	6.7	Not Active	inactive	
Cn1cc(C(=O)Nc2ccc(-c3ccncc3)c(C(F)(F)F)c2)c(=O)c2ccccc21	110	15	Not Active	inactive	
Cn1cc(C(=O)Nc2ccc(-c3ccccc3)c(C(F)(F)F)n2)c(=O)c2ccccc21	120	< 1	Not Active	inactive	
Cn1cc(C(=O)Nc2ccc(-c3ccccc3)c(C(F)(F)F)c2)c(=O)c2cccnc21	100	2.2	Not Active	inactive	
Cn1cc(C(=O)Nc2cnc(-c3ccccc3)c(C(F)(F)F)c2)c(=O)c2ccccc21	170	11	Not Active	inactive	
Cn1nc(C(=O)Nc2ccc(-c3ccccc3)c(C(F)(F)F)c2)c(=O)c2ccccc21	130	2.3	Not Active	inactive	
Cn1cc(C(=O)Nc2ccc(-c3ccccc3)c(C(F)(F)F)c2)c(=O)c2ccccc21	110	1.2			92
Cn1cc(C(=O)Nc2ccc(-c3ccccc3)c(C(F)(F)F)c2)c(=O)c2ccncc21	120	3.4	Not Active	inactive	
Cn1cc(C(=O)Nc2ccc(-c3ccccc3)c(C(F)(F)F)c2)c(=O)c2cnccc21	100	5.7	Not Active	inactive	
